Laboratory results reported in US4363805A, “Aminodesoxy-1.4;3.6-dianhydrohexitol nitrates and pharmaceutical composition” (Firma Willmar Schwabe, priority 1980, dated 1982).

Key:
female NMRI-albino mice = experiment: Acute toxicity, intravenous, mice; assay type: in vivo; conditions: within 24 hours
[1] = Acute toxicity, intravenous, mice; assay type: in vivo; conditions: mouse, in vivo; intravenous, within 24 hours; read-out: Evaluated LD50-range
mongrel cats = experiment: Inotropic and heart-circulatory effectiveness on narcotised cats, intravenous; assay type: in vivo, cat; conditions: 6 animals
[2] = 0.25 mg/kg i.v., before administration

**Q.** What does the source list for `O=[N+]([O-])O[C@H]1CO[C@H]2[C@@H]1OC[C@@H]2NCCCOc1ccccc1Cl` [Example 69, 5-[3-(2-Chlorophenoxy)-propylamino]-5-desoxy-1.4;3.6-dianhydro-L-iditol 2-nitrate]?
**A.** Frequency of death (female NMRI-albino mice; 50 mg/kg i.v.): 0/10; Frequency of death (female NMRI-albino mice; 100 mg/kg i.v.): 3/6; LD50 at 24 h [1]: 50 to 100 mg/kg

**Q.** For `O=[N+]([O-])O[C@H]1CO[C@H]2[C@@H]1OC[C@@H]2NCCCOc1ccc(Cl)cc1` [Example 68, 5-[3-(4-Chlorophenoxy)-propylamino]-5-desoxy-1.4;3.6-dianhydro-L-iditol 2-nitrate], which Frequency of death (female NMRI-albino mice; 100 mg/kg i.v.) is on record?
**A.** Its Frequency of death is 4/9.

**Q.** And the LD50 at 24 h [1]?
**A.** Its LD50 at 24 h is ~100 mg/kg.

**Q.** With `COc1cc(OC)cc(OCCCN[C@H]2CO[C@H]3[C@@H]2OC[C@@H]3O[N+](=O)[O-])c1` [Example 66, 5-[3-(3,5-Dimethoxyphenoxy)-propylamino]-5-desoxy-1.4;3.6-dianhydro-L-iditol 2-nitrate] as the compound, how does the Frequency of death (female NMRI-albino mice; 100 mg/kg i.v.) read?
**A.** The Frequency of death was 2/10.

**Q.** What about the Frequency of death (female NMRI-albino mice; 200 mg/kg i.v.) of the same compound?
**A.** Its Frequency of death is 3/3.

**Q.** What about the LD50 at 24 h [1] of the same compound?
**A.** The LD50 at 24 h was 100 to 200 mg/kg.

**Q.** Which results are given for `COc1cccc(OCCCN[C@H]2CO[C@H]3[C@@H]2OC[C@@H]3O[N+](=O)[O-])c1OC` [Example 67, 5-[3-(2,3-Dimethoxyphenoxy)-propylamino]-5-desoxy-1.4;3.6-dianhydro-L-iditol 2-nitrate]?
**A.** Frequency of death (female NMRI-albino mice; 50 mg/kg i.v.): 0/10; Frequency of death (female NMRI-albino mice; 100 mg/kg i.v.): 3/3; Frequency of death (female NMRI-albino mice; 200 mg/kg i.v.): 3/3; LD50 at 24 h [1]: ~70 mg/kg

**Q.** Which results are given for `O=[N+]([O-])O[C@@H]1CO[C@H]2[C@@H]1OC[C@@H]2NCCCCc1ccccc1` [Example 43, 2-(4-phenylbutylamino)-2-desoxy-1.4;3.6-dianhydro-D-glucitol 5-nitrate]?
**A.** Frequency of death (female NMRI-albino mice; 50 mg/kg i.v.): 1/3; Frequency of death (female NMRI-albino mice; 100 mg/kg i.v.): 3/3; Frequency of death (female NMRI-albino mice; 200 mg/kg i.v.): 6/6; LD50 at 24 h [1]: ≥ 50 mg/kg

**Q.** With `O=[N+]([O-])O[C@H]1CO[C@H]2[C@@H]1OC[C@@H]2NCCCCOc1ccccc1` [Example 37, 5-(4-Phenoxybutylamino)-5-desoxy-1.4;3.6-dianhydro-L-iditol 2-nitrate] as the compound, how does the Frequency of death (female NMRI-albino mice; 50 mg/kg i.v.) read?
**A.** Its Frequency of death is 3/10.

**Q.** And the Frequency of death (female NMRI-albino mice; 100 mg/kg i.v.)?
**A.** Its Frequency of death is 10/10.

**Q.** What about the Frequency of death (female NMRI-albino mice; 200 mg/kg i.v.) of the same compound?
**A.** The Frequency of death was 3/3.

**Q.** What about the LD50 at 24 h [1] of the same compound?
**A.** The LD50 at 24 h was ≥ 50 mg/kg.

**Q.** Which blood pressure before (mongrel cats; [2]) does the source give for `O=[N+]([O-])O[C@H]1CO[C@H]2[C@@H]1OC[C@@H]2NCCCCCc1ccccc1` [Example 30, 5-(5-Phenylpentylamino)-5-desoxy-1.4;3.6-dianhydro-L-iditol 2-nitrate] here?
**A.** The blood pressure before was 105.7 mm.Hg.

**Q.** What about the “dp/dt (inotropism) before” value (mongrel cats; [2]) of the same compound?
**A.** Its value is 9600 mm.Hg/sec.

**Q.** And the heart frequency before (mongrel cats; [2])?
**A.** The heart frequency before was 199.7 min⁻¹.

**Q.** What about the “blood pressure WD” value (mongrel cats; 0.25 mg/kg i.v.) of the same compound?
**A.** Its value is 9.2 min.

**Q.** And the blood pressure after (mongrel cats; 0.25 mg/kg i.v.)?
**A.** Its blood pressure after is 88.2 mm.Hg.

**Q.** What about the “blood pressure Δ” value (mongrel cats; 0.25 mg/kg i.v.) of the same compound?
**A.** Its value is -17.5 mm.Hg.

**Q.** What about the “dp/dt (inotropism) after” value (mongrel cats; 0.25 mg/kg i.v.) of the same compound?
**A.** The value was 8340 mm.Hg/sec.

**Q.** What about the “dp/dt (inotropism) Δ” value (mongrel cats; 0.25 mg/kg i.v.) of the same compound?
**A.** Its value is -1260 mm.Hg/sec.

**Q.** And the “dp/dt WD” value (mongrel cats; 0.25 mg/kg i.v.)?
**A.** The value was 10.2 min.

**Q.** What about the heart frequency after (mongrel cats; 0.25 mg/kg i.v.) of the same compound?
**A.** Its heart frequency after is 198.0 min⁻¹.

**Q.** What about the “heart frequency Δ” value (mongrel cats; 0.25 mg/kg i.v.) of the same compound?
**A.** Its value is -1.7 min⁻¹.

**Q.** What about the “blood pressure WD” value (mongrel cats; 0.50 mg/kg i.v.) of the same compound?
**A.** Its value is 11.2 min.

**Q.** And the blood pressure after (mongrel cats; 0.50 mg/kg i.v.)?
**A.** The blood pressure after was 81.8 mm.Hg.

**Q.** What about the “blood pressure Δ” value (mongrel cats; 0.50 mg/kg i.v.) of the same compound?
**A.** The value was -25.0 mm.Hg.

**Q.** What about the “dp/dt (inotropism) after” value (mongrel cats; 0.50 mg/kg i.v.) of the same compound?
**A.** The value was 7540 mm.Hg/sec.

**Q.** And the “dp/dt (inotropism) Δ” value (mongrel cats; 0.50 mg/kg i.v.)?
**A.** Its value is -1820 mm.Hg/sec.

**Q.** What about the “dp/dt WD” value (mongrel cats; 0.50 mg/kg i.v.) of the same compound?
**A.** The value was 13.7 min.

**Q.** What about the heart frequency after (mongrel cats; 0.50 mg/kg i.v.) of the same compound?
**A.** Its heart frequency after is 200.3 min⁻¹.

**Q.** What about the “heart frequency Δ” value (mongrel cats; 0.50 mg/kg i.v.) of the same compound?
**A.** The value was -0.7 min⁻¹.

**Q.** What about the “blood pressure WD” value (mongrel cats; 1.00 mg/kg i.v.) of the same compound?
**A.** The value was 22.2 min.

**Q.** What about the blood pressure after (mongrel cats; 1.00 mg/kg i.v.) of the same compound?
**A.** The blood pressure after was 73.3 mm.Hg.

**Q.** What about the “blood pressure Δ” value (mongrel cats; 1.00 mg/kg i.v.) of the same compound?
**A.** Its value is -33.0 mm.Hg.

**Q.** What about the “dp/dt (inotropism) after” value (mongrel cats; 1.00 mg/kg i.v.) of the same compound?
**A.** The value was 6160 mm.Hg/sec.

**Q.** And the “dp/dt (inotropism) Δ” value (mongrel cats; 1.00 mg/kg i.v.)?
**A.** Its value is -2180 mm.Hg/sec.

**Q.** What about the “dp/dt WD” value (mongrel cats; 1.00 mg/kg i.v.) of the same compound?
**A.** Its value is 23.6 min.

**Q.** And the heart frequency after (mongrel cats; 1.00 mg/kg i.v.)?
**A.** Its heart frequency after is 196.0 min⁻¹.

**Q.** What about the “heart frequency Δ” value (mongrel cats; 1.00 mg/kg i.v.) of the same compound?
**A.** Its value is -2.3 min⁻¹.

**Q.** And the “blood pressure WD” value (mongrel cats; 2.50 mg/kg i.v.)?
**A.** Its value is > 10 min.

**Q.** And the blood pressure after (mongrel cats; 2.50 mg/kg i.v.)?
**A.** The blood pressure after was 60.3 mm.Hg.

**Q.** And the “blood pressure Δ” value (mongrel cats; 2.50 mg/kg i.v.)?
**A.** The value was -45.8 mm.Hg.

**Q.** What about the “dp/dt (inotropism) after” value (mongrel cats; 2.50 mg/kg i.v.) of the same compound?
**A.** Its value is 5840 mm.Hg/sec.

**Q.** What about the “dp/dt (inotropism) Δ” value (mongrel cats; 2.50 mg/kg i.v.) of the same compound?
**A.** The value was -2060 mm.Hg/sec.

**Q.** What about the “dp/dt WD” value (mongrel cats; 2.50 mg/kg i.v.) of the same compound?
**A.** The value was > 10 min.

**Q.** What about the heart frequency after (mongrel cats; 2.50 mg/kg i.v.) of the same compound?
**A.** The heart frequency after was 188.3 min⁻¹.

**Q.** What about the “heart frequency Δ” value (mongrel cats; 2.50 mg/kg i.v.) of the same compound?
**A.** Its value is -2.0 min⁻¹.

**Q.** For `O=[N+]([O-])O[C@H]1CO[C@H]2[C@@H]1OC[C@@H]2NCCCOc1ccc(Cl)cc1Cl` [Example 72, 5-[3-(2,4-Dichlorophenoxy)-propylamino]-5-desoxy-1.4;3.6-dianhydro-L-iditol2-nitrate], which Frequency of death (female NMRI-albino mice; 100 mg/kg i.v.) is on record?
**A.** Its Frequency of death is 0/6.

**Q.** What about the LD50 at 24 h [1] of the same compound?
**A.** The LD50 at 24 h was > 100 mg/kg.

**Q.** What does the source list for `CN(CCCCc1ccccc1)[C@H]1CO[C@H]2[C@@H]1OC[C@@H]2O[N+](=O)[O-]` [Example 22, 5-[N-(4-Phenylbutyl)-N-methylamino]-5-desoxy-1.4;3.6-dianhydro-L-iditol 2-nitrate]?
**A.** Frequency of death (female NMRI-albino mice; 50 mg/kg i.v.): 1/3; Frequency of death (female NMRI-albino mice; 100 mg/kg i.v.): 3/3; Frequency of death (female NMRI-albino mice; 200 mg/kg i.v.): 6/6; LD50 at 24 h [1]: ≥ 50 mg/kg
